Source: patent US11613556B2, “Oxysterols and methods of use thereof” (Sage Therapeutics, Inc., priority 2016, dated 2023)

Target: glutamate-activated channels of the GRIN1/2A subtype stably transfected in HEK 293 cells (Homo sapiens (Human), UniProt Q05586+Q12879)
Assay: Automated patch-clamp system (QPatch HTX), percent potentiation at 1 μM
Type: cell-based
Settings: HEK293, 1 μM test compound, 300 μM NMDA with 8 μM glycine, HEK 293 GRIN1/2A, read-out: GluN2A PCA % potentiation at 1 μM
Method: NMDA potentiation in mammalian cells which expressed NMDA receptors was assessed using the automatic patch-clamp system can be used determine the NAM activity of compounds as described below. An whole cell patch-clamp system can be used determine the PAM activity of compounds as described below.
Automated Patch-Clamp System (OPatch HTX):
In this study, HEK 293 cells stably transfected with glutamate-activated channels of the GRIN1/2A subtype will be used together with submaximal NMDA concentrations (300 μM NMDA, co-application with 8 μM Glycine) to investigate the negative allosteric modulation of the test compounds.
In general, cells will be passaged at a confluence of about 80% to […]. For electrophysiological measurements cells will be harvested at a confluence of about 80% to 90% from sterile culture flasks containing culture complete medium. Cells will be transferred as suspension in PBS to the QPatch 16X or QPatch HTX system to the centrifuge/washer directly.
Standard Laboratory Conditions: Cells will be incubated at 37° C. in a humidified atmosphere with 5% CO2 (rel. humidity about 95%).
Culture media: The cells will be continuously maintained in and passaged in sterile culture flasks containing a 1:1 mixture of Dulbecco's modified eagle medium and nutrient mixture F-12 (D-MEM/F-12 1×, liquid, with L-Glutamine) supplemented with 10% fetal bovine serum, 1% Penicillin/Streptomycin solution, and 50 μM AP-5 blocker.
Antibiotics: The complete medium as indicated above is supplemented with 100 μg/mL hygromycin, 15 μg/mL blasticidin and 1 μg/mL puromycin.
Induction of Expression: 2.5 μg/mL tetracycline is added 24 h before start of experiments.
Dose levels are in terms of test compounds, as supplied. Vehicle will be added to achieve a stock concentration of 10 mM (storage at −10° C. to −30° C.). A further stock solutions of 1.0 mM will be prepared in DMSO. Details of stock solution usage (thawing, dose formulations) will be documented in the raw data. The time period of stock solution usage will be detailed in the report.
Test Compound Concentrations
One test concentration of 1.0 μM will be tested.
All test solutions will be prepared by diluting the stock solutions with either Mg-free bath solution only or Mg-free bath solution containing NMDA (300 μM) and glycine (8.0 μM) shortly prior to the electrophysiological experiments and kept at room temperature (19° C. to 30° C.) when in use. 0.1% DMSO will be used as vehicle.
Frequency of preparation: For each test concentration, fresh solutions of test compounds will be prepared every day.
Stability of dose formulation: All preparation times will be documented in the raw data. Any observations regarding instability of test compounds will be mentioned in the raw data.
Storage of dose formulation: On the day of experimentation dose formulations will be maintained at room temperature (19° C. to 30° C.) when in use.
For preparing the experiments and for formation of the giga-ohm-seal, the following standard bath solution will be used:
Sodium Chloride: 137 mM; Potassium Chloride: 4 mM; Calcium Chloride: 1.8 mM; Magnesium Chloride: 1 mM; HEPES: 10 mM; D-Glucose: 10 mM; Cremophor: 0.02%; pH (NaOH): 7.4
The 1× bath solution will be prepared by diluting 10× bath solution without Glucose and 100× Glucose solution with water at least every 7 days. Both stock solutions have been prepared prior to the experimental start of the present study and stored at 1° C. to 9° C. (10× bath solution) or −10° C. to −30° (100× Glucose solution). The batch number(s) of the bath solution(s) used in the experiments will be documented in the raw data. When in use, the 1× bath solution will be kept at room temperature (19° C. to 30° C.). When not in use, the 1× bath solution will be stored at 1° C. to 9° C.
After the giga-seal was formed the following Mg-free bath solution will be used:
Sodium Chloride: 137 mM; Potassium Chloride: 4 mM; Calcium Chloride; 2.8 mM; HEPES: 10 mM; D-Glucose: 10 mM; Cremophor: 0.02%; pH (NaOH): 7.4 […]

Sequence of glutamate-activated channels of the GRIN1/2A subtype stably transfected in HEK 293 cells (Q12879 whole entry, looked up, other chains not shown): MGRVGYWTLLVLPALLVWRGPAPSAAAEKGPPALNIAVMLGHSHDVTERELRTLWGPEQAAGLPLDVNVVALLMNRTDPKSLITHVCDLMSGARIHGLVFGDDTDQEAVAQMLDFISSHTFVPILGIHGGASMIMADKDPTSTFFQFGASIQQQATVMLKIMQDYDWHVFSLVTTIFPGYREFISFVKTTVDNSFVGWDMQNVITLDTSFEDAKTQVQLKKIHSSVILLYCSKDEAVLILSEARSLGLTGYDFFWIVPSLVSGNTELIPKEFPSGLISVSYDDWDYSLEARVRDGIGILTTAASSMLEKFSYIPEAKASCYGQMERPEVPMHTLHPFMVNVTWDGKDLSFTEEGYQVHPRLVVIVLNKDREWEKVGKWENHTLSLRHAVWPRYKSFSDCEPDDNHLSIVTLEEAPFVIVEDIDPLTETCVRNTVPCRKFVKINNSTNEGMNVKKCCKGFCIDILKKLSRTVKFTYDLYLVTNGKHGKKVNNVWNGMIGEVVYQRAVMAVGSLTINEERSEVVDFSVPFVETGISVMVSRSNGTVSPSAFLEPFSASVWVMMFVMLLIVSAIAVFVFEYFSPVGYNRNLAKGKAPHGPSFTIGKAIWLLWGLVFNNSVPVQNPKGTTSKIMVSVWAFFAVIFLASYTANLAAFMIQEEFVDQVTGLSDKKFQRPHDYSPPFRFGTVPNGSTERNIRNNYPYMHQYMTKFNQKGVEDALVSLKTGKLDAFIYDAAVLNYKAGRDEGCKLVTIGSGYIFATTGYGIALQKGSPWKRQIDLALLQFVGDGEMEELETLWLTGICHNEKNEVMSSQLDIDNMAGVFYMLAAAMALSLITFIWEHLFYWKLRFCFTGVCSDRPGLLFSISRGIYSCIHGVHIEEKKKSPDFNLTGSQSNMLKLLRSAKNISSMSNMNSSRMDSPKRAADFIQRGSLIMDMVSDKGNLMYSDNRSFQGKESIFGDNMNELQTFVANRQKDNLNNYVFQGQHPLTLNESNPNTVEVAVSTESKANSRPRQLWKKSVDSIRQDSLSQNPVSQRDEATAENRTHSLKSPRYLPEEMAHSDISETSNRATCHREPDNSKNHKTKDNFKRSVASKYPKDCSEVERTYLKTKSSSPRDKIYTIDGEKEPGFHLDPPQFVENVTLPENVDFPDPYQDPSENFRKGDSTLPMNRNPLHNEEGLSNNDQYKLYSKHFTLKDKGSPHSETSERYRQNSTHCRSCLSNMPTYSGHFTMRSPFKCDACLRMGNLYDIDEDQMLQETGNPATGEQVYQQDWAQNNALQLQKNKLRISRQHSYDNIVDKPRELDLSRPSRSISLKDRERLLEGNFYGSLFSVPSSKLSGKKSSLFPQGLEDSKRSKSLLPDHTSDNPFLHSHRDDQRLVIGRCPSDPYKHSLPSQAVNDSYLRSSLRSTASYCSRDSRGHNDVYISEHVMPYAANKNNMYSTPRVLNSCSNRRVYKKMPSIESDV

**Q.** C[C@@H]([C@H]1CC[C@H]2[C@@H]3CC=C4C[C@](O)(C(F)(F)F)CC[C@]4(C)[C@H]3CC[C@]12C)[C@H](O)C(F)(F)F [Compound 1, (3S,8S,9S,10R,13S,14S,17R)-10,13-dimethyl-17-((2S,3S)-4,4,4-trifluoro-3-hydroxybutan-2-yl)-3-(trifluoromethyl)-2,3,4,7,8,9,10,11,12,13,14,15,16,17-tetradecahydro-1H-cyclopenta[a]phenanthren-3-ol] was tested. Which activation at 1 µM did it give?
**A.** -40 to -10%

**Q.** For COC[C@]1(O)CC[C@@]2(C)[C@@H](CC[C@@H]3[C@@H]2CC[C@]2(C)[C@@H]([C@H](C)[C@H](O)CCC(C)C)CC[C@@H]32)C1 [Compound 2, (3S,5S,8R,9S,10S,13S,14S,17R)-17-((2S,3R)-3-hydroxy-6-methylheptan-2-yl)-3-(methoxymethyl)-10,13-dimethylhexadecahydro-1H-cyclopenta[a]phenanthren-3-ol], which activation at 1 µM is on record?
**A.** < -40%

**Q.** How did the activation at 1 µM turn out when CC[C@]1(O)CC[C@@]2(C)[C@@H](CC[C@@H]3[C@@H]2CC[C@]2(C)[C@@H]([C@H](C)[C@@H](O)c4cccnc4)CC[C@@H]32)C1 [Compound 7, (3S,5S,8R,9S,10S,13S,14S,17R)-3-ethyl-17-((1R,2S)-1-hydroxy-1-(pyridin-3-yl)propan-2-yl)-10,13-dimethylhexadecahydro-1H-cyclopenta[a]phenanthren-3-ol] was run?
**A.** -10 to 10%

**Q.** Which activation at 1 µM does the source give for COC[C@]1(O)CC[C@@]2(C)[C@H](CC[C@@H]3[C@@H]2CC[C@]2(C)[C@@H]([C@H](C)[C@@H](O)C(F)(F)F)CC[C@@H]32)C1 [Compound 9, (3S,5R,8R,9S,10S,13S,14S,17R)-3-(methoxymethyl)-10,13-dimethyl-17-((2S,3R)-4,4,4-trifluoro-3-hydroxybutan-2-yl)hexadecahydro-1H-cyclopenta[a]phenanthren-3-ol] here?
**A.** -40 to -10%

**Q.** With CC[C@]1(O)CC[C@@]2(C)[C@@H](CC[C@@H]3[C@@H]2CC[C@]2(C)[C@@H]([C@H](C)[C@@H](O)C4CC4)CC[C@@H]32)C1 [Compound 10, (3S,5S,8R,9S,10S,13S,14S,17R)-17-((1S,2S)-1-cyclopropyl-1-hydroxypropan-2-yl)-3-ethyl-10,13-dimethylhexadecahydro-1H-cyclopenta[a]phenanthren-3-ol] as the compound, how does the activation at 1 µM read?
**A.** < -40%

**Q.** CC[C@]1(O)CC[C@@]2(C)[C@@H](CC[C@@H]3[C@@H]2CC[C@]2(C)[C@@H]([C@H](C)[C@H](O)C(F)(F)F)CC[C@@H]32)C1 [Compound 11, (3S,5S,8R,9S,10S,13S,14S,17R)-3-ethyl-10,13-dimethyl-17-((2S,3S)-4,4,4-trifluoro-3-hydroxybutan-2-yl)hexadecahydro-1H-cyclopenta[a]phenanthren-3-ol] was tested. Which activation at 1 µM did it give?
**A.** < -40%

**Q.** How did the activation at 1 µM turn out when CC[C@]1(O)CC[C@@]2(C)[C@H](CC[C@@H]3[C@@H]2CC[C@]2(C)[C@@H]([C@H](C)[C@H](O)CCC(C)(C)C)CC[C@@H]32)C1 [Compound 15, (3S,5R,8R,9S,10S,13S,14S,17R)-3-ethyl-17-((2S,3R)-3-hydroxy-6,6-dimethylheptan-2-yl)-10,13-dimethylhexadecahydro-1H-cyclopenta[a]phenanthren-3-ol] was run?
**A.** -40 to -10%

**Q.** For CC[C@]1(O)CC[C@@]2(C)[C@@H](CC[C@@H]3[C@@H]2CC[C@]2(C)[C@@H]([C@H](C)[C@@H](O)C(F)(F)F)CC[C@@H]32)C1 [Compound 16, (3S,5S,8R,9S,10S,13S,14S,17R)-3-ethyl-10,13-dimethyl-17-((2S,3R)-4,4,4-trifluoro-3-hydroxybutan-2-yl)hexadecahydro-1H-cyclopenta[a]phenanthren-3-ol], which activation at 1 µM is on record?
**A.** -40 to -10%

**Q.** For CC[C@]1(O)CC[C@@]2(C)[C@@H](CC[C@@H]3[C@@H]2CC[C@]2(C)[C@@H]([C@H](C)[C@H](O)CC4CCOCC4)CC[C@@H]32)C1 [Compound 18, (3S,5S,8R,9S,10S,13S,14S,17R)-3-ethyl-17-((2S,3R)-3-hydroxy-4-(tetrahydro-2H-pyran-4-yl)butan-2-yl)-10,13-dimethylhexadecahydro-1H-cyclopenta[a]phenanthren-3-ol], which activation at 1 µM is on record?
**A.** -10 to 10%

**Q.** How did the activation at 1 µM turn out when CC[C@]1(O)CC[C@@]2(C)[C@@H](CC[C@@H]3[C@@H]2CC[C@]2(C)[C@@H]([C@H](C)[C@H](O)c4ccccc4)CC[C@@H]32)C1 [Compound 19, (3S,5S,8R,9S,10S,13S,14S,17R)-3-ethyl-17-((1S,2S)-1-hydroxy-1-phenylpropan-2-yl)-10,13-dimethylhexadecahydro-1H-cyclopenta[a]phenanthren-3-ol] was run?
**A.** -40 to -10%

**Q.** For CC[C@H](O)[C@@H](C)[C@H]1CC[C@H]2[C@@H]3CC[C@H]4C[C@](O)(CC)CC[C@]4(C)[C@H]3CC[C@]12C [Compound 21, (3S,5S,8R,9S,10S,13S,14S,17R)-3-ethyl-17-((2S,3S)-3-hydroxypentan-2-yl)-10,13-dimethylhexadecahydro-1H-cyclopenta[a]phenanthren-3-ol], which activation at 1 µM is on record?
**A.** -40 to -10%

**Q.** Which activation at 1 µM does the source give for C[C@@H]([C@H]1CC[C@H]2[C@@H]3CC[C@H]4C[C@](O)(C(F)(F)F)CC[C@]4(C)[C@H]3CC[C@]12C)[C@@H](C)O [Compound 22, (3S,5S,8R,9S,10S,13S,14S,17R)-17-((2S,3R)-3-hydroxybutan-2-yl)-10,13-dimethyl-3-(trifluoromethyl)hexadecahydro-1H-cyclopenta[a]phenanthren-3-ol] here?
**A.** -10 to 10%

**Q.** With COC[C@]1(O)CC[C@@]2(C)C(=CC[C@H]3[C@@H]4CC[C@H]([C@H](C)[C@H](O)C(F)(F)F)[C@@]4(C)CC[C@@H]32)C1 [Compound 39, (3S,8S,9S,10R,13S,14S,17R)-3-(methoxymethyl)-10,13-dimethyl-17-((2S,3S)-4,4,4-trifluoro-3-hydroxybutan-2-yl)-2,3,4,7,8,9,10,11,12,13,14,15,16,17-tetradecahydro-1H-cyclopenta[a]phenanthren-3-ol] as the compound, how does the activation at 1 µM read?
**A.** -40 to -10%

**Q.** CC#CC[C@H](O)[C@@H](C)[C@H]1CC[C@H]2[C@@H]3CC[C@H]4C[C@](O)(CC)CC[C@]4(C)[C@H]3CC[C@]12C [Compound 41, (3S,5S,8R,9S,10S,13S,14S,17R)-3-ethyl-17-((2S,3S)-3-hydroxyhept-5-yn-2-yl)-10,13-dimethylhexadecahydro-1H-cyclopenta[a]phenanthren-3-ol] was tested. Which activation at 1 µM did it give?
**A.** -40 to -10%

**Q.** CC[C@]1(O)CC[C@@]2(C)[C@H](CC[C@@H]3[C@@H]2CC[C@]2(C)[C@@H]([C@H](C)[C@@H](O)C(F)(F)F)CC[C@@H]32)C1 [Compound 43, (3S,5R,8R,9S,10S,13S,14S,17R)-3-ethyl-10,13-dimethyl-17-((2S,3R)-4,4,4-trifluoro-3-hydroxybutan-2-yl)hexadecahydro-1H-cyclopenta[a]phenanthren-3-ol] was tested. Which activation at 1 µM did it give?
**A.** < -40%

**Q.** COC[C@]1(O)CC[C@H]2[C@H](CC[C@@H]3[C@@H]2CC[C@]2(C)[C@@H]([C@H](C)[C@@H](O)C(F)(F)F)CC[C@@H]32)C1 [Compound 45, (3S,5R,8R,9R,10S,13S,14S,17R)-3-(methoxymethyl)-13-methyl-17-((2S,3R)-4,4,4-trifluoro-3-hydroxybutan-2-yl)hexadecahydro-1H-cyclopenta[a]phenanthren-3-ol] was tested. Which activation at 1 µM did it give?
**A.** -40 to -10%
